Literature values in patent US20060246153A1, “Herbal compositions for the teatment and prevention of prostate disorders” (priority 2003, published 2006).

System: localised prostate adenocarcinoma
Details: 28 mg a day in the diet for three weeks

In the case of `CC(C)=CCC/C(C)=C/C=C/C(C)=C/C=C/C(C)=C/C=C/C=C(C)/C=C/C=C(C)/C=C/C=C(\C)CCC=C(C)C` [lycopene], the “oxidative damage to the DNA of the post-operative biopsy tissue” value is listed as “greatly reduced” and the “plasma levels of PSA (prostate-specific antigen)” value is listed as “reduced”.
